Data: patent US12022844B2, “Nutritional composition, food/drink composition using nutritional composition, and modified milk powder using nutritional composition” (priority 2018, dated 2024)

How the values were obtained:
Type in all cases: cell-based
[1] = system: Bifidobacterium pseudolongum ATCC25526; assay: Mix-culturing with Bifidobacterium bifidum by HMO as sugar source, quantitative PCR; settings: ATCC 25526^T mix-cultured with Bifidobacterium bifidum (NITE BP-02429), sugar source 2%, Table 8
Protocol: (§1) A10% solution of glucose (manufactured by Nakarai Tesque Inc.), and 2′-FL ((≥95%) Funakoshi, available from sigma), and LNnT (manufactured by ELICITYL) as examples of HMOs was prepared with ion exchanged water, and was subjected to sterile filtration using Millex-GV (SLGV033RS).
(§2) Lactobacilli MRS Broth (BD) (0.05% L-Cysteine Hydrochloride for Bacteria of the genus Bifidobacterium) was added to strains of Table 1 below (bacteria belonging to Bifidobacterium bifidum) and Table 2 below. After a sterilization treatment, 3% of the bacterial solution was inoculated, and anaerobically cultured (pre-pre cultured) at 37° C. for 16 h.
(§3) The following day, 1% glucose was added to a modified BL agar medium (“Studies on Bifidobacteria” by Tomotari Mitsuoka, p. 306, Japan Bifidus Foundation, issued in 1994) noted in Table 3, for preparation. After a sterilization treatment, 3% of the pre-pre cultured bacterial solution was inoculated, and anaerobically pre-cultured (pre-cultured) at 37° C. for 12 h.
(§4) The pre-cultured bacterial solution was collected and washed once with a sterile physiological saline solution. Then, mass-up was performed to an equal volume with the modified BL agar medium (“Studies on Bifidobacteria” by Tomotari Mitsuoka, p. 306, Japan Bifidus Foundation, issued in 1994) noted in Table 3 to prepare a suspended bacterial solution.
(§5) The modified BL agar medium (“Studies on Bifidobacteria” by Tomotari Mitsuoka, p. 306, Japan Bifidus Foundation, issued in 1994) noted in Table 3 was prepared at a capacity of 60%, and was subjected to an autoclave sterilization treatment. Then, 40% of each sugar solution prepared in (1) was aseptically added so as to prepare a medium with a sugar concentration of 4%.
(§6) The medium prepared in the above (3) was dispensed at a capacity that is half the capacity for aseptic culturing in a 96-well plate, and each of the bacterial solutions of strains of bacteria belonging to Bifidobacterium bifidum in Table 1 and probiotics having a low ability to assimilate human milk oligosaccharides in Table 2, which was prepared in the above (2), was dispensed at a remaining […] capacity into the medium prepared in the above (3) such that the bacterial solution had 12%. Then, a final sugar concentration was set to 2%. The plate into which the bacterial solution was dispensed was anaerobically cultured at 37° C. for 8 h.
(§7) OD650 was measured from each well in the plates in the above (4) and the above (5) before (0 h) culturing and after (8 h) culturing, by MICROPLATE READER SH-9000 (manufactured by CORONA ELECTRIC). After turbidity measurement, microbial cells were collected, and DNA extraction was performed. After the DNA extraction, the number of proliferating bacteria of Bifidobacteria/lactobacilli was analyzed by using the bacterial species-specific primer noted in Table 4, by a quantitative PCR method (see “Structural analysis of intestinal flora”—analysis of bacterial flora in human feces using quantitative PCR—by Kouichi Watanabe, Enterobacteriological journal, 20:35-42, 2006).
(§8) It was decided to culture Bifidobacterium bifidum (NITE BP-02429) in which availability of 2′-FL or LNnT was found as described above, in combination with strains in Table 2, which cannot use 2′-FL or LNnT. Bifidobacterium bifidum (NITE BP-02429) and the strains in Table 2, which cannot use 2′-FL or LNnT, were mix-cultured by 2′-FL or LNnT as a sugar source, and after culturing for 8 h, the proliferation rate of the number of bacteria of each strain (proliferation rate=the number of bacteria after mix-culturing for 8 h/the number of bacteria after single bacterial culturing) was measured by a quantitative PCR method using each strain-specific oligonucleotide primer noted in Table 4, for the strain in Table 2.

[2] = system: Bifidobacterium adolescentis ATCC15703; assay: as above; settings: ATCC 15703^7 mix-cultured with Bifidobacterium bifidum (NITE BP-02429), sugar source 2%, Table 8
Protocol: as §1, §2, §3, §4, §5, §6, §7, §8

[3] = system: Lactobacillus paracasei ATCC 25302; assay: as above; settings: for Proliferation rate (number of bacteria after mix-culturing for 8 h/number of bacteria after single bacterial culturing): ATCC 25302^7 mix-cultured with Bifidobacterium bifidum (NITE BP-02429), sugar source 2%, Table 8; for Proliferation ratio of Lactobacillus paracasei ATCC 25302^T (mix-cultured bacteria after 8 h/single bacterial culturing 8 h): Table 12; for number of proliferating bacteria of Lactobacillus paracasei ATCC 25302^T in combination with seven strains of Bifidobacterium bifidum compared to single bacterium culture: summary of Table 12
Protocol: as §1, §2, §3, §4, §5, §6, §7, §8
Seven strains of Bifidobacterium bifidum in Table 1 and Lactobacillus paracasei ATCC 25302^T which cannot use 2′-FL or LNnT were mix-cultured by 2′-FL or LNnT as a sugar source. […]

[4] = system: Bifidobacterium animalis subspecies lactis MCC-525; assay: as above; settings: for Proliferation rate (number of bacteria after mix-culturing for 8 h/number of bacteria after single bacterial culturing): MCC-525 mix-cultured with Bifidobacterium bifidum (NITE BP-02429), sugar source 2%, Table 8; for Proliferation rate of MCC-525 (mix-cultured bacteria after 8 h/single bacterial culturing 8 h): Table 10; for number of proliferating bacteria of MCC-525 in combination with seven strains of Bifidobacterium bifidum compared to single bacterium culture: summary of Table 10
Protocol: as §1, §2, §3, §4, §5, §6, §7, §8
Seven strains of Bifidobacterium bifidum in Table 1 and Bifidobacterium animalis subspecies lactis MCC-525 which cannot use 2′-FL or LNnT were mix-cultured by 2′-FL or LNnT as a sugar source. […]

[5] = system: bacteria belonging to Bifidobacterium bifidum in Table 1; assay: Availability of HMOs by bacteria belonging to Bifidobacterium bifidum (single culturing, summary); settings: single bacterial culturing, 8 h; summary of Table 5
Protocol: The medium prepared in the above (3) was dispensed at a capacity that is half the capacity for culturing in a 96-well plate, and the bacterial solution prepared in the above (2) was dispensed at a remaining half capacity such that the bacterial solution had 6%. Then, a final sugar concentration was set to 2%. The plate into which the bacterial solution was dispensed was anaerobically cultured at 37° C. for 8 h.
as §7
Regarding bacteria belonging to Bifidobacterium bifidum in Table 1, each strain was cultured as a single bacterium by 2′-FL or LNnT (HMOs) as a sugar source, and OD650 was measured. […]

[6] = system: Lactobacillus gasseri ATCC 33323; assay: Mix-culturing with Bifidobacterium bifidum by HMO as sugar source, quantitative PCR; settings: for Proliferation rate (number of bacteria after mix-culturing for 8 h/number of bacteria after single bacterial culturing): ATCC 33323^T mix-cultured with Bifidobacterium bifidum (NITE BP-02429), sugar source 2%, Table 8; for proliferation rate of Lactobacillus gasseri ATCC 33323^T (mix-cultured bacteria after 8 h/single bacterial culturing 8 h): Table 11
Protocol: as §1, §2, §3, §4, §5, §6, §7, §8
Seven strains of Bifidobacterium bifidum in Table 1 and Lactobacillus gasseri ATCC 33323^T which cannot use 2′-FL were mix-cultured by 2′-FL as a sugar source. […]

[7] = mix-cultured with Bifidobacterium bifidum ATCC 29521^T
[8] = mix-cultured with Bifidobacterium bifidum NITE BP-1252
[9] = mix-cultured with Bifidobacterium bifidum NITE BP-02429
[10] = mix-cultured with Bifidobacterium bifidum NITE BP-02431
[11] = mix-cultured with Bifidobacterium bifidum NITE BP-02432
[12] = mix-cultured with Bifidobacterium bifidum NITE BP-02433
[13] = mix-cultured with Bifidobacterium bifidum NITE P-02648

Compound	Proliferation rate (number of bacteria after mix-culturing for 8 h/number of bacteria after single bacterial culturing) [1]	Proliferation rate (number of bacteria after mix-culturing for 8 h/number of bacteria after single bacterial culturing) [2]	Proliferation rate (number of bacteria after mix-culturing for 8 h/number of bacteria after single bacterial culturing) [3]	Proliferation ratio of Lactobacillus paracasei ATCC 25302^T (mix-cultured bacteria after 8 h/single bacterial culturing 8 h) [3, 7]	Proliferation ratio of Lactobacillus paracasei ATCC 25302^T (mix-cultured bacteria after 8 h/single bacterial culturing 8 h) [3, 8]	Proliferation ratio of Lactobacillus paracasei ATCC 25302^T (mix-cultured bacteria after 8 h/single bacterial culturing 8 h) [3, 9]	Proliferation ratio of Lactobacillus paracasei ATCC 25302^T (mix-cultured bacteria after 8 h/single bacterial culturing 8 h) [3, 10]	Proliferation ratio of Lactobacillus paracasei ATCC 25302^T (mix-cultured bacteria after 8 h/single bacterial culturing 8 h) [3, 11]	Proliferation ratio of Lactobacillus paracasei ATCC 25302^T (mix-cultured bacteria after 8 h/single bacterial culturing 8 h) [3, 12]	Proliferation ratio of Lactobacillus paracasei ATCC 25302^T (mix-cultured bacteria after 8 h/single bacterial culturing 8 h) [3, 13]	number of proliferating bacteria of Lactobacillus paracasei ATCC 25302^T in combination with seven strains of Bifidobacterium bifidum compared to single bacterium culture [3]	Proliferation rate (number of bacteria after mix-culturing for 8 h/number of bacteria after single bacterial culturing) [4]	Proliferation rate of MCC-525 (mix-cultured bacteria after 8 h/single bacterial culturing 8 h) [4, 7]	Proliferation rate of MCC-525 (mix-cultured bacteria after 8 h/single bacterial culturing 8 h) [4, 8]	Proliferation rate of MCC-525 (mix-cultured bacteria after 8 h/single bacterial culturing 8 h) [4, 9]	Proliferation rate of MCC-525 (mix-cultured bacteria after 8 h/single bacterial culturing 8 h) [4, 10]	Proliferation rate of MCC-525 (mix-cultured bacteria after 8 h/single bacterial culturing 8 h) [4, 11]	Proliferation rate of MCC-525 (mix-cultured bacteria after 8 h/single bacterial culturing 8 h) [4, 12]	Proliferation rate of MCC-525 (mix-cultured bacteria after 8 h/single bacterial culturing 8 h) [4, 13]	number of proliferating bacteria of MCC-525 in combination with seven strains of Bifidobacterium bifidum compared to single bacterium culture [4]	other results
2′-fucosyllactose [2′-FL]	1.24	1.91	6.92	2.28	1.98	4.21	3.25	2.01	3.23	4.23	promoted	2.62	2.01	2.06	4.85	3.82	2.45	3.67	4.35	promoted	assimilability by all the bacteria belonging to Bifidobacterium bifidum in Table 1 [5]: had assimilability; Proliferation rate (number of bacteria after mix-culturing for 8 h/number of bacteria after single bacterial culturing) [6]: 3.70; proliferation rate of Lactobacillus gasseri ATCC 33323^T (mix-cultured bacteria after 8 h/single bacterial culturing 8 h) [6, 7]: 1.45; proliferation rate of Lactobacillus gasseri ATCC 33323^T (mix-cultured bacteria after 8 h/single bacterial culturing 8 h) [6, 8]: 3.99; proliferation rate of Lactobacillus gasseri ATCC 33323^T (mix-cultured bacteria after 8 h/single bacterial culturing 8 h) [6, 9]: 2.33; proliferation rate of Lactobacillus gasseri ATCC 33323^T (mix-cultured bacteria after 8 h/single bacterial culturing 8 h) [6, 10]: 4.42; proliferation rate of Lactobacillus gasseri ATCC 33323^T (mix-cultured bacteria after 8 h/single bacterial culturing 8 h) [6, 11]: 3.99; proliferation rate of Lactobacillus gasseri ATCC 33323^T (mix-cultured bacteria after 8 h/single bacterial culturing 8 h) [6, 12]: 3.64; proliferation rate of Lactobacillus gasseri ATCC 33323^T (mix-cultured bacteria after 8 h/single bacterial culturing 8 h) [6, 13]: 2.88; number of proliferating bacteria of Lactobacillus gasseri ATCC33323T in combination with seven strains of Bifidobacterium bifidum compared to single bacterium culture ([6]; summary of Table 11): promoted
CC(=O)N[C@H]1[C@H](O[C@H]2[C@@H](O)[C@@H](CO)O[C@@H](O[C@H]3[C@H](O)[C@@H](O)C(O)O[C@@H]3CO)[C@@H]2O)O[C@H](CO)[C@@H](O[C@@H]2O[C@H](CO)[C@H](O)[C@H](O)[C@H]2O)[C@@H]1O (mixture of isomers) [LNnT, lacto-N-neotetraose]	0.98	1.53	4.23	4.26	9.18	8.04	10.10	8.76	8.85	14.78	promoted	1.41	3.87	19.98	4.17	3.58	4.21	2.39	6.03	promoted	proliferation promotion effect of the number of bacteria of MCC-525 ([4]; in the combination with Bifidobacterium bifidum (NITE BP-1252)): significantly higher; assimilability by all the bacteria belonging to Bifidobacterium bifidum in Table 1 [5]: had assimilability; Proliferation rate (number of bacteria after mix-culturing for 8 h/number of bacteria after single bacterial culturing) [6]: 1.53
